Data published in patent US9737502B2, “Calebin A for hepatic steatosis” (SAMI LABS LIMITED, priority 2011, dated 2017).
Marks after values point to notes of the source that are not given here.

How the values were obtained:
[1] = test system: IL-6; test: Estimation of IL-6 in adipocyte supernatant by ELISA; assay type: cell-based; settings: human adipocytes
Experimental: (§1) 3T3-L1 cells approximately 60×10^4 cells are seeded for 48-72 hrs to get 70-80% confluence. After 48 hrs 200 μl of AIM (Adipogenesis induction medium) freshly prepared is added. 72 hrs later 200 μl APM (Adipogenesis progression medium) with the test compounds in different concentrations is added to the wells. The cells are incubated for 48 hrs in a humidified atmosphere (37° C.) of 5% CO2 and 95% air. The supernatant is collected and stored for the estimation of leptin, adiponectin, IL-6 and TNF-α by ELISA. Cells are fixed by adding 100 μl of 10% formalin and ORO staining is done. OD is read at 492 nm in microplate reader. The results are expressed as IC50 values using Graphpad prism software.
(§2) The percentage of inhibition of adipogenesis is calculated as follows, % inhibition=C−T/[…] Where C-absorbance of Oil red 0 in differentiating/undifferentiated cells T-absorbance of Oil Red-O in sample treated differentiating/undifferentiated cells. The estimation of leptin, adiponectin, IL-6 and TNF-α is done according to user's manual from R&D Systems.

[2] = test system: leptin; test: Study 2: serum leptin by ELISA in obese mice; assay type: in vivo, C57 mice; settings: Study 2, end of study period
Experimental: Further, on completion of the study period blood samples were collected from all the animals in […] for estimation of systemic expression of leptin and adiponectin. Blood samples were collected humanely from retro-orbital plexus puncture method under mild ether anesthesia with the help of a fine capillary tube. The blood samples collected in tubes without anticoagulant were centrifuged at 3000 rpm for 10 minutes to obtain serum which was subjected to ELISA technique for the estimation of leptin and adiponectin. The import of leptin and adiponectin expression as biomarkers in obesity has been discussed in aforesaid paragraphs. […] Low systemic adiponectin levels have been cited as predictive factors in the progression of disease states like Type II Diabetes mellitus (Chamukuttan Snehalatha et al, “Plasma Adiponectin Is an Independent Predictor of Type 2 Diabetes in Asian Indians”, Diabetes Care December 2003 vol. 26 no. 12 3226-3229).

[3] = test system: TNF-α; test: Serum TNF-α in LPS-injected mice after 6 days oral treatment (ELISA); assay type: in vivo, Swiss albino mice; settings: graded doses, then LPS 1 mg/kg i.v., serum 90 min after LPS
Experimental: (§3) The present inventors also adduce study data on the ability of Calebin A to reduce expression of Extracellular TNF-α, IL-1 beta [FIG. 6] and IL-6 [FIG. 7] in serum from treated mice (in-vivo models). Swiss albino male mice aged 6-8 weeks were maintained at 22±2° C. under 12/12 h light dark cycle. Mice received oral treatment of test drugs at graded doses (w/v) for 6 days, followed by intravenous injection of 1 mg/kg of LPS according to the method described by Brieva A, Guerrero A, Alonso-Lebrero J L and Pivel J P. 2001. Immunoferon, a glycoconjugate of natural origin, inhibits LPS-induced TNF-α production and inflammatory responses. International Immunopharmacology 1, 1979-1987. Six mice were employed in each group and experiments were performed in triplicates. TNF-α, IL-1 beta and IL-6 production was evaluated by a commercial ELISA kits (R&D Systems) in serum from treated mice, 90 min after LPS injection. Rolipram at 30 mg/kg was used as standard drug.

[4] = test system: mice; test: Acute oral toxicity of Calebin A; assay type: in vivo
Experimental: No mortality was observed up to 2000 mg/kg p.o. in mice up to two weeks of observation.

[5] = test system: IL-6; test: Serum IL-6 in LPS-injected mice after 6 days oral treatment (ELISA); assay type: in vivo, Swiss albino mice; settings: graded doses, then LPS 1 mg/kg i.v., serum 90 min after LPS
Experimental: as §3

[6] = test system: leptin; test: Estimation of leptin in adipocyte supernatant by ELISA; assay type: cell-based; settings: human adipocytes
Experimental: as §1, §2

[7] = test system: IL-1β; test: Extracellular IL-1β in LPS-stimulated murine neutrophils; assay type: cell-based; settings: for IL-1β Concentration: LPS Control 51.80 ± 2.18
[8] = Serum biochemistry (TCHO, TG, HDL, GOT, GPT) in HFD-fed mice, 12 weeks; assay type: in vivo, C57BL/6J mice; settings: for GPT: HFD 38.25 ± 8.92; for HDL: HFD 109.40 ± 1.34; for TG: HFD 151.00 ± 8.89; for TCHO: HFD 162.67 ± 15.89; for GOT: HFD 335.28 ± 18.80
Experimental: Food cups were replenished with fresh diet daily. […] Statistical analysis was done by Student's t test.
C57BL/6J mice fed with HFD for period of 12 weeks were evaluated for serum levels of GOT and GTP. Results indicated enhanced serum GOT and GTP (TABLE XI) when compared to the ND group.
Data were presented as the mean±SE (n=8 per group). […] ND: normal diet; HFD: high fat diet.

[9] = test system: TNF-α; test: Estimation of TNF-α in adipocyte supernatant by ELISA; assay type: cell-based; settings: human adipocytes
Experimental: as §1, §2

COc1cc(/C=C/C(=O)COC(=O)/C=C/c2ccc(O)c(OC)c2)ccc1O [Calebin A]
percentage inhibition of IL-6 ([1]; 0.5 μg/ml): 21.31% | percentage inhibition of IL-6 ([1]; 1.0 μg/ml): 32.37% | percentage inhibition of IL-6 ([1]; 2.0 μg/ml): 31.7% | inhibition of leptin expression in the serum of obese animals [2]: insignificant effect | expression of TNF-α in serum [3]: effective in reducing | Autonomic Nervous System: Atexia ([4]; mouse, in vivo, po): Atexia = Nil | Autonomic Nervous System: Diarrhea ([4]; mouse, in vivo, po): Diarrhea = Nil | Autonomic Nervous System: Motor Activity ([4]; mouse, in vivo, po): Motor Activity = Normal | Autonomic Nervous System: Respiration Rate ([4]; mouse, in vivo, po): Respiration Rate = Normal | Central Nervous System: Clonic Convulsions ([4]; mouse, in vivo, po): Clonic Convulsions = Nil | Central Nervous System: Excitation ([4]; mouse, in vivo, po): Excitation = Nil | Central Nervous System: Motor Activity ([4]; mouse, in vivo, po): Motor Activity = Nil | Central Nervous System: Tonic Convulsion ([4]; mouse, in vivo, po): Tonic Convulsion = Nil | Central Nervous System: Tremors ([4]; mouse, in vivo, po): Tremors = Nil | Dermal: Blanching ([4]; mouse, in vivo, po): Blanching = Nil | Dermal: Cyanosis ([4]; mouse, in vivo, po): Cyanosis = Nil | Dermal: Hyperaemia ([4]; mouse, in vivo, po): Hyperaemia = Nil | Food and Water (Intake and Excretion): Fecal Output ([4]; mouse, in vivo, po): Fecal Output = Normal | Food and Water (Intake and Excretion): Urine Output ([4]; mouse, in vivo, po): Urine Output = Normal | General Behaviour: Aggression ([4]; mouse, in vivo, po): Aggression = Nil | General Behaviour: Fear ([4]; mouse, in vivo, po): Fear = Nil | General Behaviour: General Locomotor Activity ([4]; mouse, in vivo, po): Normal | General Behaviour: General Movement ([4]; mouse, in vivo, po): General Movement = Normal | General Behaviour: Passive ([4]; mouse, in vivo, po): Passive = Nil | General Parameters: Diarrhea ([4]; mouse, in vivo, po): Diarrhea = Nil | General Parameters: Muscular Weakness ([4]; mouse, in vivo, po): Muscular Weakness = Nil | General Parameters: Pilo Erection ([4]; mouse, in vivo, po): Pilo Erection = Nil | General Parameters: Salivation ([4]; mouse, in vivo, po): Salivation = Nil | Reflexes: Corneal ([4]; mouse, in vivo, po): Corneal = No effect | Reflexes: Pinnal ([4]; mouse, in vivo, po): Pinnal = No effect | Respiratory System: Respiration Depth ([4]; mouse, in vivo, po): Respiration Depth = Normal | Respiratory System: Respiration Rate ([4]; mouse, in vivo, po): Respiration Rate = Normal | mortality ([4]; up to 2000 mg/kg p.o., up to two weeks of observation): No mortality | expression of IL-6 in serum [5]: effective in reducing | percentage inhibition of leptin production ([6]; 0.5 μg/ml): 34.92% | percentage inhibition of leptin production ([6]; 1.0 μg/ml): 41.04% | percentage inhibition of leptin production ([6]; 2.0 μg/ml): 39.48% | % Activity (suppression of IL-1 β expression) ([7]; 0.5 μg/ml): 20.38%↓ | IL-1β Concentration ([7]; 0.5 μg/ml): 41.24 ± 1.16 pg/mL | % Activity (suppression of IL-1 β expression) ([7]; 1.0 μg/ml): 24.20%↓ | IL-1β Concentration ([7]; 1.0 μg/ml): 39.26 ± 2.52 pg/mL | % Activity (suppression of IL-1 β expression) ([7]; 2.0 μg/ml): 28.26%↓ | IL-1β Concentration ([7]; 2.0 μg/ml): 37.16 ± 2.11 pg/mL | GPT ([8]; HFD + 0.25% Calebin A): 23.00 ± 2.92^c U/l | HDL ([8]; HFD + 0.25% Calebin A): 107.80 ± 2.05^a mg/dl | TG ([8]; HFD + 0.25% Calebin A): 121.25 ± 6.55^b mg/dl | TCHO ([8]; HFD + 0.25% Calebin A): 136.50 ± 7.51^c mg/dl | GOT ([8]; HFD + 0.25% Calebin A): 110.33 ± 2.52^b U/l | GPT ([8]; HFD + 1% Calebin A): 32.50 ± 3.00^a U/l | HDL ([8]; HFD + 1% Calebin A): 104.50 ± 8.80^a mg/dl | TG ([8]; HFD + 1% Calebin A): 89.75 ± 5.85^b mg/dl | TCHO ([8]; HFD + 1% Calebin A): 110.50 ± 17.97^a mg/dl | GOT ([8]; HFD + 1% Calebin A): 77.50 ± 11.12^c U/l | percentage inhibition of TNF-α ([9]; 0.5 μg/ml): 36.03% | percentage inhibition of TNF-α ([9]; 1.0 μg/ml): 40.81% | percentage inhibition of TNF-α ([9]; 2.0 μg/ml): 45.47%
